For experiment [1], the system named is antibodies in sera from SARS patients (sera 1a, 1b, 2, 6, 37, 62, London, SARS-yellow, SARS-green). It counts as binding, human. The arrangement: Binding of serum 6 to linear peptides of protein X1 of SARS-CoV Urbani / Binding of serum 37 to linear peptides of protein X1 of SARS-CoV Urbani / Binding of serum 6 to looped/cyclic peptide (PEPSCAN-ELISA) / Binding of serum 37 to looped/cyclic peptide (PEPSCAN-ELISA) / Binding of serum 37 to looped/cyclic peptides of protein X1 of SARS-CoV Urbani / Binding of serum 6 to linear peptides of protein X2 / Binding of serum 37 to linear peptides of protein X2 / Binding of serum 37 to looped/cyclic peptides of protein X2 of SARS-CoV Urbani / Binding of serum 6 to linear peptides of protein M of SARS-CoV Urbani / Binding of serum 37 to linear peptides of protein M of SARS-CoV Urbani / Binding of serum 6 to looped/cyclic peptides of protein M of SARS-CoV Urbani / Binding of serum 37 to looped/cyclic peptides of protein M of SARS-CoV Urbani / Binding of serum 6 to linear peptides of protein X3 of SARS-CoV Urbani / Binding of serum 37 to linear peptides of protein X3 of SARS-CoV Urbani / Binding of serum 37 to looped/cyclic peptides of protein X3 of SARS-CoV Urbani / Binding of serum 6 to linear peptides of protein X4 of SARS-CoV Urbani / Binding of serum 37 to linear peptides of protein X4 of SARS-CoV Urbani / Binding of serum 37 to looped/cyclic peptides of protein X4 of SARS-CoV Urbani / Binding of serum 6 to linear peptides of protein X5 of SARS-CoV Urbani / Binding of serum 37 to linear peptides of protein X5 of SARS-CoV Urbani / Binding of serum 37 to looped/cyclic peptides of protein X5 of SARS-CoV Urbani / Binding of serum 6 to linear peptides of protein N of SARS-CoV Urbani / Binding of serum 37 to linear peptides of protein N of SARS-CoV Urbani / Binding of serum 6 to linear peptide (PEPSCAN-ELISA) / Binding of serum 1a to looped/cyclic peptides of protein N of SARS-CoV Urbani / Binding of serum 1b to looped/cyclic peptides of protein N of SARS-CoV Urbani / Binding of serum 2 to looped/cyclic peptides of protein N of SARS-CoV Urbani / Binding of serum 6 to looped/cyclic peptides of protein N of SARS-CoV Urbani / Binding of serum 37 to looped/cyclic peptides of protein N of SARS-CoV Urbani / Binding of serum 62 to looped/cyclic peptides of protein N of SARS-CoV Urbani / Binding of serum London to looped/cyclic peptides of protein N of SARS-CoV Urbani / Binding of serum SARS-green to looped/cyclic peptides of protein N of SARS-CoV Urbani: unit not given here.

Experiment [2] relates to control sera (pooled serum of ten healthy LUMC hospital workers; commercial negative donor pooled serum from the Dutch bloodbank). It is filed as binding, human. The arrangement: Binding of Control serum LUMC to linear peptides / Binding of Control serum Blood-bank to linear peptides / Binding of Control serum LUMC to looped peptides / Binding of Control Serum Blood-Bank to Looped peptides / Binding of Control serum LUMC to linear peptides of the protein M of SARS-CoV Urbani / Binding of Control serum Blood-bank to linear peptides of the protein M of SARS-CoV Urbani / Binding of Control serum LUMC to looped peptides of the protein M of SARS-CoV Urbani / Binding of Control Serum Blood-Bank to Looped peptides of the protein M of SARS-CoV Urbani: unit not given here.

In experiment [3] the test system is rabbit serum obtained by immunizing a rabbit with the SARS-CoV strain Frankfurt 1. It is filed as binding. The arrangement: Binding of a rabbit serum to linear peptides / Binding of a rabbit serum to looped peptides / Rabbit serum linear peptides / Rabbit serum looped peptides / Binding of a rabbit serum to linear peptides of protein N of SARS-CoV Urbani (Rabbit serum linear peptides) / Binding of a rabbit serum to looped/cyclic peptides of protein N of SARS-CoV Urbani (Rabbit serum looped peptides): unit not given here.

For experiment [4], the system named is recombinant human anti-SARS-CoV antibody 03-018. It is filed as binding. The arrangement: Binding of antibody 03-018 to linear peptides of the N protein of SARS-CoV Urbani / Binding of antibody 03-018 to looped/cyclic peptides of the N protein of SARS-CoV Urbani: unit not given here.

Regarding RQGTDYKHWPQIAQF, in experiment [1], the “Binding of serum 1a to linear peptides of protein N of SARS-CoV Urbani” value was 0.3, the “Binding of serum 1a to looped/cyclic peptides of protein N of SARS-CoV Urbani” value worked out at 0.5, the “Binding of serum 1b to linear peptides of protein N of SARS-CoV Urbani” value is on record as 0.2 and the “Binding of serum 1b to looped/cyclic peptides of protein N of SARS-CoV Urbani” value came out at 0.4. Moreover, in experiment [1], the “Binding of serum 2 to linear peptides of protein N of SARS-CoV Urbani” value is listed as 0.2, the “Binding of serum 2 to looped/cyclic peptides of protein N of SARS-CoV Urbani” value stood at 0.5, the “Binding of serum 6 to linear peptides of protein N of SARS-CoV Urbani” value is 0.2 and the “Binding of serum 6 to looped/cyclic peptides of protein N of SARS-CoV Urbani” value was 0.3. For the same sequence, in experiment [1], the “Binding of serum 37 to linear peptides of protein N of SARS-CoV Urbani” value is 0.7, the “Binding of serum 37 to looped/cyclic peptides of protein N of SARS-CoV Urbani” value is reported as 0.8, the “Binding of serum 62 to linear peptides of protein N of SARS-CoV Urbani” value worked out at 0.8 and the “Binding of serum 62 to looped/cyclic peptides of protein N of SARS-CoV Urbani” value was 0.9. In addition, in experiment [1], the “Binding of serum London to linear peptides of protein N of SARS-CoV Urbani” value is reported as 0.7, the “Binding of serum London to looped/cyclic peptides of protein N of SARS-CoV Urbani” value is 0.5, the “Binding of serum SARS-green to linear peptides of protein N of SARS-CoV Urbani” value came out at 0.3 and the “Binding of serum SARS-green to looped/cyclic peptides of protein N of SARS-CoV Urbani” value was found to be 0.4. For the same sequence, in experiment [1], the “Binding of serum SARS-yellow to linear peptides of protein N of SARS-CoV Urbani” value came out at 0.6 and the “Binding of serum SARS-yellow to looped/cyclic peptides of protein N of SARS-CoV Urbani” value is listed as 0.8. In experiment [2], the “Binding of Control Serum Blood-Bank to Looped peptides” value is reported as 0.7, the “Binding of Control serum Blood-bank to linear peptides” value was determined as 0.7, the “Binding of Control serum LUMC to linear peptides” value turned out to be 0.7 and the “Binding of Control serum LUMC to looped peptides” value is 0.8. Moreover, in experiment [3], the “Binding of a rabbit serum to linear peptides of protein N of SARS-CoV Urbani (Rabbit serum linear peptides)” value (“Binding … (Rabbit serum linear peptides)” below) is on record as 0.2 and the “Binding of a rabbit serum to looped/cyclic peptides of protein N of SARS-CoV Urbani (Rabbit serum looped peptides)” value is reported as 0.4. In addition, in experiment [4], the “Binding of antibody 03-018 to linear peptides of the N protein of SARS-CoV Urbani” value was 0.1 and the “Binding of antibody 03-018 to looped/cyclic peptides of the N protein of SARS-CoV Urbani” value is on record as 0.2.
RQKKQPTVTLLPAAD: in experiment [1], the “Binding of serum 1a to linear peptides of protein N of SARS-CoV Urbani” value amounted to 0.3, the “Binding of serum 1b to linear peptides of protein N of SARS-CoV Urbani” value amounted to 0.2, the “Binding of serum 2 to linear peptides of protein N of SARS-CoV Urbani” value worked out at 0.2 and the “Binding of serum 6 to linear peptides of protein N of SARS-CoV Urbani” value is given as 0.2. In experiment [1], the “Binding of serum 37 to linear peptides of protein N of SARS-CoV Urbani” value came to 0.7, the “Binding of serum 62 to linear peptides of protein N of SARS-CoV Urbani” value came to 0.8, the “Binding of serum London to linear peptides of protein N of SARS-CoV Urbani” value worked out at 0.6 and the “Binding of serum SARS-green to linear peptides of protein N of SARS-CoV Urbani” value is recorded as 0.6. In experiment [1], the “Binding of serum SARS-yellow to linear peptides of protein N of SARS-CoV Urbani” value worked out at 0.6; the “Recognition of the peptide by sera of SARS-CoV infected individuals, and form (linear, looped/cyclic) in which it is recognized” value is “recognized in looped/cyclic form”. In experiment [2], the “Control Serum Blood-Bank Looped peptides” value is listed as 0.6, the “Control serum Blood-bank linear peptides” value was found to be 0.7, the “Control serum LUMC linear peptides” value worked out at 0.8 and the “Control serum LUMC looped peptides” value worked out at 0.5. Besides, in experiment [3], the “Binding … (Rabbit serum linear peptides)” value was determined as 0.1 and the “Binding of a rabbit serum to looped/cyclic peptides of protein N of SARS-CoV Urbani (Rabbit serum looped peptides)” value is recorded as 0.4. Further, in experiment [4], the “Binding of antibody 03-018 to linear peptides of the N protein of SARS-CoV Urbani” value was 0.1 and the “Binding of antibody 03-018 to looped/cyclic peptides of the N protein of SARS-CoV Urbani” value was 0.2.
Regarding RRATRRVRGGDGKMK, in experiment [1], the “Binding of serum 1a to linear peptides of protein N of SARS-CoV Urbani” value is 0.2, the “Binding of serum 1a to looped/cyclic peptides of protein N of SARS-CoV Urbani” value is given as 0.2, the “Binding of serum 1b to linear peptides of protein N of SARS-CoV Urbani” value was 0.1 and the “Binding of serum 1b to looped/cyclic peptides of protein N of SARS-CoV Urbani” value worked out at 0.1. In experiment [1], the “Binding of serum 2 to linear peptides of protein N of SARS-CoV Urbani” value is given as 0.3, the “Binding of serum 2 to looped/cyclic peptides of protein N of SARS-CoV Urbani” value is on record as 0.1, the “Binding of serum 6 to linear peptides of protein N of SARS-CoV Urbani” value came to 0.3 and the “Binding of serum 6 to looped/cyclic peptides of protein N of SARS-CoV Urbani” value is 0.1. Moreover, in experiment [1], the “Binding of serum 37 to linear peptides of protein N of SARS-CoV Urbani” value stood at 0.8, the “Binding of serum 37 to looped/cyclic peptides of protein N of SARS-CoV Urbani” value came out at 0.4, the “Binding of serum 62 to linear peptides of protein N of SARS-CoV Urbani” value is 0.7 and the “Binding of serum 62 to looped/cyclic peptides of protein N of SARS-CoV Urbani” value came out at 0.3. In experiment [1], the “Binding of serum London to linear peptides of protein N of SARS-CoV Urbani” value is listed as 0.5, the “Binding of serum London to looped/cyclic peptides of protein N of SARS-CoV Urbani” value turned out to be 0.2, the “Binding of serum SARS-green to linear peptides of protein N of SARS-CoV Urbani” value worked out at 0.3 and the “Binding of serum SARS-green to looped/cyclic peptides of protein N of SARS-CoV Urbani” value was found to be 0.0. In experiment [1], the “Binding of serum SARS-yellow to linear peptides of protein N of SARS-CoV Urbani” value is recorded as 0.6 and the “Binding of serum SARS-yellow to looped/cyclic peptides of protein N of SARS-CoV Urbani” value came out at 0.2. Also, in experiment [2], the “Binding of Control Serum Blood-Bank to Looped peptides” value is listed as 0.4, the “Binding of Control serum Blood-bank to linear peptides” value is reported as 0.8, the “Binding of Control serum LUMC to linear peptides” value was 0.8 and the “Binding of Control serum LUMC to looped peptides” value is listed as 0.3. In experiment [3], the “Binding … (Rabbit serum linear peptides)” value was determined as 0.6 and the “Binding of a rabbit serum to looped/cyclic peptides of protein N of SARS-CoV Urbani (Rabbit serum looped peptides)” value is 0.1. In experiment [4], the “Binding of antibody 03-018 to linear peptides of the N protein of SARS-CoV Urbani” value is reported as 0.1 and the “Binding of antibody 03-018 to looped/cyclic peptides of the N protein of SARS-CoV Urbani” value is recorded as 0.2.
For RRGPEQTQGNFGDQD, in experiment [1], the “Binding of serum 1a to looped/cyclic peptides of protein N of SARS-CoV Urbani” value is on record as 0.3, the “Binding of serum 1b to looped/cyclic peptides of protein N of SARS-CoV Urbani” value was found to be 0.2, the “Binding of serum 2 to looped/cyclic peptides of protein N of SARS-CoV Urbani” value is on record as 0.2 and the “Binding of serum 6 to looped/cyclic peptides of protein N of SARS-CoV Urbani” value is 0.1. In experiment [1], the “Binding of serum 37 to looped/cyclic peptides of protein N of SARS-CoV Urbani” value was 0.4, the “Binding of serum 62 to looped/cyclic peptides of protein N of SARS-CoV Urbani” value is 0.2, the “Binding of serum London to looped/cyclic peptides of protein N of SARS-CoV Urbani” value is listed as 0.2 and the “Binding of serum SARS-green to looped/cyclic peptides of protein N of SARS-CoV Urbani” value is listed as 0.6. Also, in experiment [1], the “Binding of serum SARS-yellow to looped/cyclic peptides of protein N of SARS-CoV Urbani” value stood at 0.4; the “Recognition of the peptide by sera of SARS-CoV infected individuals, and form (linear, looped/cyclic) in which it is recognized” value is recorded as “recognized in linear form”. In experiment [2], the “Binding of Control Serum Blood-Bank to Looped peptides” value turned out to be 0.3, the “Binding of Control serum Blood-bank to linear peptides” value was 0.6, the “Binding of Control serum LUMC to linear peptides” value came to 0.6 and the “Binding of Control serum LUMC to looped peptides” value was 0.4. In experiment [3], the “Binding … (Rabbit serum linear peptides)” value turned out to be 0.1 and the “Binding of a rabbit serum to looped/cyclic peptides of protein N of SARS-CoV Urbani (Rabbit serum looped peptides)” value stood at 0.1. In addition, in experiment [4], the “Binding of antibody 03-018 to linear peptides of the N protein of SARS-CoV Urbani” value is 0.1 and the “Binding of antibody 03-018 to looped/cyclic peptides of the N protein of SARS-CoV Urbani” value came to 0.2.

Values taken from patent US20070128217A1 (priority 2003, published 2007).
